Laboratory results as given in patent publication US20250034216A1, “STEREOSELECTIVE COVALENT LIGANDS FOR ONCOGENIC AND IMMUNOLOGICAL PROTEINS” (The Scripps Research Institute, priority 2021, published 2025).

Columns and labels:
Assay in all cases: IA-DTB cysteine engagement
Format in all cases: binding
ALB_C269 = target: T1, ALB_C269 (Homo sapiens, UniProt P02768); settings: 22Rv1 cells, 20 μM probe, 1 h, relative to DMSO
T1 construct: endogenous in cells; host or cells: 22Rv1
Outline: (§1)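 Read-out is TMT-based cysteine engagement, expressed as each reporter ion intensity divided by the average of the DMSO channels. Before that, probe-treated cell lysates were capped with IA-DTB, digested, enriched on streptavidin and TMT-tagged. PSMs with DMSO summed intensity <10,000 or DMSO CV >0.5 were excluded.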

FABP5_C127 = target: T2, FABP5_C127 (Homo sapiens, UniProt Q01469); settings: 22Rv1 cells, 20 μM probe, 1 h, relative to DMSO
T2 construct: endogenous in cells; host or cells: 22Rv1
Outline: as §1

IFT43_C58 = target: T3, IFT43_C58 (Homo sapiens, UniProt Q96FT9); settings: 22Rv1 cells, 20 μM probe, 1 h, relative to DMSO
T3 construct: endogenous in cells; host or cells: 22Rv1
T3 sequence (Q96FT9 1-208): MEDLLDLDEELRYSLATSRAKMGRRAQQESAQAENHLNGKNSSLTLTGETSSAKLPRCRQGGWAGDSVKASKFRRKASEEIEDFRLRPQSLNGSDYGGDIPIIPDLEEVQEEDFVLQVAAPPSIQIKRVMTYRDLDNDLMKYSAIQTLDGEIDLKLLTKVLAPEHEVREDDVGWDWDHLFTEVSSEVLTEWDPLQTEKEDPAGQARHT
Outline: as §1

PRXL2A_C85 = target: T4, PRXL2A_C85 (Homo sapiens, UniProt Q9BRX8); settings: 22Rv1 cells, relative to DMSO; for % engagement PRXL2A_C85: 20 μM probe, 1 h; for % engagement PRXL2A_85: 5 μM probe, 1 h (FIG. 5B)
T4 construct: endogenous in cells; host or cells: 22Rv1
T4 sequence (Q9BRX8 1-229): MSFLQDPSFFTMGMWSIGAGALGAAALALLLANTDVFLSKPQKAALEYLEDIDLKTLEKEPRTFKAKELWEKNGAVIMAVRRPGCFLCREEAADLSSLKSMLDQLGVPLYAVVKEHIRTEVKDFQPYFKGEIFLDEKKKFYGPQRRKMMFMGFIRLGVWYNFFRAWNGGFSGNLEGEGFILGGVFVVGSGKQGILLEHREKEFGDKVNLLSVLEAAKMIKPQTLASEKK
Outline: as §1

TM7SF2_C184 = target: T5, TM7SF2_C184 (Homo sapiens, UniProt O76062); settings: 22Rv1 cells, 20 μM probe, 1 h, relative to DMSO
T5 construct: endogenous in cells; host or cells: 22Rv1
T5 sequence (O76062 1-418): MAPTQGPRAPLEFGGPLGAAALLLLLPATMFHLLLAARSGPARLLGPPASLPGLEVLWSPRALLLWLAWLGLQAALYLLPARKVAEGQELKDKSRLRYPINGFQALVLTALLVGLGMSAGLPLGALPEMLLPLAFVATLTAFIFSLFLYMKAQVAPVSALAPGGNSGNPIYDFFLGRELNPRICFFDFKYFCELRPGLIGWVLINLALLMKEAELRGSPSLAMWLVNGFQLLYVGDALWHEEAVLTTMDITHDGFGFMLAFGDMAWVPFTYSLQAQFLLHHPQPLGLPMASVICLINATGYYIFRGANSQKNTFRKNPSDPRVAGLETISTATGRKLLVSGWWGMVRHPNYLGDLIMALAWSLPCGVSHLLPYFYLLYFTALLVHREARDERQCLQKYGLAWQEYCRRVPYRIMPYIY
Outline: as §1

UBR5_C2094 = target: T6, UBR5_C2094 (Homo sapiens, UniProt O95071); settings: 22Rv1 cells, 20 μM probe, 1 h, relative to DMSO
T6 construct: endogenous in cells; host or cells: 22Rv1
Outline: as §1

T2 sequence (Q01469 whole entry): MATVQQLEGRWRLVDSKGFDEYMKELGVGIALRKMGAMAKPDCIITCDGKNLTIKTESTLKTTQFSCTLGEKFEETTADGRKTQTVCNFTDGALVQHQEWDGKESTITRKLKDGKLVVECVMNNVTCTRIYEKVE
T1 sequence (P02768 25-609): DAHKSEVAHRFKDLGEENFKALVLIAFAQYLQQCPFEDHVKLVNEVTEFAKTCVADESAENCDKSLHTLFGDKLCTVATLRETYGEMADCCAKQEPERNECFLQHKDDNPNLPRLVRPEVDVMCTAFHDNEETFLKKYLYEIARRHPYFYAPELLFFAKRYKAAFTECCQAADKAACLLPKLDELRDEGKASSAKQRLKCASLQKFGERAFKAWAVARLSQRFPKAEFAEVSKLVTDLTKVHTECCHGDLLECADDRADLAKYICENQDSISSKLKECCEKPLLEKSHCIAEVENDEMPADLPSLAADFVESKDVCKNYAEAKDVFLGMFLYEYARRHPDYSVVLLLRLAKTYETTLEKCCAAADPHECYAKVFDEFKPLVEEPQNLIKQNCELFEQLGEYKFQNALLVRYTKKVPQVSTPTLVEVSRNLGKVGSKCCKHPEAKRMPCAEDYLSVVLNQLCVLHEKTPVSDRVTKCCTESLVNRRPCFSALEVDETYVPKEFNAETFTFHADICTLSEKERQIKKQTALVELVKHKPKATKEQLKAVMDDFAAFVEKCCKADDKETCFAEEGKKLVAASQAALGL
T6 sequence (O95071 whole entry): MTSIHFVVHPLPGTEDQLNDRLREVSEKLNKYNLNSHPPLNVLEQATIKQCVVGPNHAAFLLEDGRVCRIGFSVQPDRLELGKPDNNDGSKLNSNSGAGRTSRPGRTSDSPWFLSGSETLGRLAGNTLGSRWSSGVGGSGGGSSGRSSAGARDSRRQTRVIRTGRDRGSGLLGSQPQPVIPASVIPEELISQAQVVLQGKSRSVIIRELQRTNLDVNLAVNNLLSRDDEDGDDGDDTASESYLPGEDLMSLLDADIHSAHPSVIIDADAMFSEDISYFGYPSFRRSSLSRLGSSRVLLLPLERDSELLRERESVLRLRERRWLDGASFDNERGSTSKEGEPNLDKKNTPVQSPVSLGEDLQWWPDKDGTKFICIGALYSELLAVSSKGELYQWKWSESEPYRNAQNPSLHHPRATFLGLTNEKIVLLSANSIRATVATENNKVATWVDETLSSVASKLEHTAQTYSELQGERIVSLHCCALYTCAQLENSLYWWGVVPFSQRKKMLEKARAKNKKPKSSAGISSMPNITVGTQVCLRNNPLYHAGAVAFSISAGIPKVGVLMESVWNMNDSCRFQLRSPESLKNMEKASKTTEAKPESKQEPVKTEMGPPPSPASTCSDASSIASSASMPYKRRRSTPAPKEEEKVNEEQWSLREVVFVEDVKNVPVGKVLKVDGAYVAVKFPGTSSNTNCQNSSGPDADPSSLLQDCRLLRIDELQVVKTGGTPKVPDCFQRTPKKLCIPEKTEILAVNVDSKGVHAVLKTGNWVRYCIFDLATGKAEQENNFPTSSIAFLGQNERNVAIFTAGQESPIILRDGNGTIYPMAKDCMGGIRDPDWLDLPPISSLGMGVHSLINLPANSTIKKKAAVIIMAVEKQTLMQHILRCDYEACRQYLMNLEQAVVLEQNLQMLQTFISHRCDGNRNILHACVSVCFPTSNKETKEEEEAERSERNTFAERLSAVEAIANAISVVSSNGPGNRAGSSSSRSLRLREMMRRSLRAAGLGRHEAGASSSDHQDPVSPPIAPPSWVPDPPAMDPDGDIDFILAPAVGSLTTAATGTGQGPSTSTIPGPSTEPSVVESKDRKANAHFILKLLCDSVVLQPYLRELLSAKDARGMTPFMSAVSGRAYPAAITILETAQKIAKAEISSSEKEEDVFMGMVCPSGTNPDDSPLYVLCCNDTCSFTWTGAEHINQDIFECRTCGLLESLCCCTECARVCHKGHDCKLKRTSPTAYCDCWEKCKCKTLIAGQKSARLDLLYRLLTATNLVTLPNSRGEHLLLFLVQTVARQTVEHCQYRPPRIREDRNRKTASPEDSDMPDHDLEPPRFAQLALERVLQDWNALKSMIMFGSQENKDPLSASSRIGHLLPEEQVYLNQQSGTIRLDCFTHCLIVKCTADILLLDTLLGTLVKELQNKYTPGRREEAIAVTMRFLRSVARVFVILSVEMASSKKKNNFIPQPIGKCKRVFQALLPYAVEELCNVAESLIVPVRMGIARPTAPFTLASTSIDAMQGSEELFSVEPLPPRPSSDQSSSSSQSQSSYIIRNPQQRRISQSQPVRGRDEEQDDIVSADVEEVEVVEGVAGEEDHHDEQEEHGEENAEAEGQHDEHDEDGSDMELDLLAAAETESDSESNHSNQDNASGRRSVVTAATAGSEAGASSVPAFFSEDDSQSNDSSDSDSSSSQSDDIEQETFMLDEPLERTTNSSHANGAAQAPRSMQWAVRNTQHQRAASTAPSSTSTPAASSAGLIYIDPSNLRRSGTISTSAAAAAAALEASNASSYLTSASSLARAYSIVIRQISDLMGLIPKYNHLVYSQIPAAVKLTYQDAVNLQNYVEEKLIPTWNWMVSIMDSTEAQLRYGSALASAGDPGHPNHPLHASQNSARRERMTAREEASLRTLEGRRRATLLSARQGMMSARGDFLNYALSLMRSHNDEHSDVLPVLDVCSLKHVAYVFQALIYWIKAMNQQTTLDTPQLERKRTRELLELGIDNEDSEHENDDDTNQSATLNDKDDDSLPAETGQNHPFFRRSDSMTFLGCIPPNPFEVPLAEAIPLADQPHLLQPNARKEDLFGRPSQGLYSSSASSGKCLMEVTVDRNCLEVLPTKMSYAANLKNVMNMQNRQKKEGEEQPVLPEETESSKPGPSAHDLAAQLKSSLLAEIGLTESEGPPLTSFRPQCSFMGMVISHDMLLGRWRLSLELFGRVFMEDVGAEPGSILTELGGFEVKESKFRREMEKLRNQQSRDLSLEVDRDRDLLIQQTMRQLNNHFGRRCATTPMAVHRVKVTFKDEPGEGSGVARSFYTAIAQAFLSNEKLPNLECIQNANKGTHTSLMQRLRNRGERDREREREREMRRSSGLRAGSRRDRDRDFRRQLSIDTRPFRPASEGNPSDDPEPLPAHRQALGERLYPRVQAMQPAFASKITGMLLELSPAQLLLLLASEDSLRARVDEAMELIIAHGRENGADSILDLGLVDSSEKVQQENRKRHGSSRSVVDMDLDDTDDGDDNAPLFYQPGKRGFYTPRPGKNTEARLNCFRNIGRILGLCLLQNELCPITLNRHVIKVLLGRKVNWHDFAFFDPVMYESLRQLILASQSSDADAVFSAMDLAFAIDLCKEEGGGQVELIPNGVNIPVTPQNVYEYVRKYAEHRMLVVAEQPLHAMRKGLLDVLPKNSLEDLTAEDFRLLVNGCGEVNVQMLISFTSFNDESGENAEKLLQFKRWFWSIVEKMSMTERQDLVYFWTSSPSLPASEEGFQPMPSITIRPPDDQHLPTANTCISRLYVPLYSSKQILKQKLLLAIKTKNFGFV

SMILES	% engagement ALB_C269 (ALB_C269) [%]	% engagement FABP5_C127 (FABP5_C127) [%]	% engagement IFT43_C58 (IFT43_C58) [%]	% engagement PRXL2A_C85 (PRXL2A_C85) [%]	% engagement TM7SF2_C184 (TM7SF2_C184) [%]	% engagement UBR5_C2094 (UBR5_C2094) [%]	% engagement PRXL2A_85 (PRXL2A_C85) [%]
C=CC(=O)N1C[C@@H](c2ccc(Br)cc2)[C@H]1C(=O)Nc1cccc2cccnc12 [MY-1A, (2S,3R)-1-acryloyl-3-(4-bromophenyl)-N-(quinolin-8-yl)azetidine-2-carboxamide]	42.5	0	28.5	92.5	86.5	23	
C=CC(=O)N1C[C@H](c2ccc(Br)cc2)[C@@H]1C(=O)Nc1cccc2cccnc12 [MY-1B, (2R,3S)-1-acryloyl-3-(4-bromophenyl)-N-(quinolin-8-yl)azetidine-2-carboxamide]	47.5	73	−17	98.75	64	40.5	91.48
C=CC(=O)N1C[C@H](c2ccc(Br)cc2)[C@H]1C(=O)Nc1cccc2cccnc12 [MY-3A, (2S,3S)-1-acryloyl-3-(4-bromophenyl)-N-(quinolin-8-yl)azetidine-2-carboxamide]	86	−13	17	97.5	66.5	22.5	
C=CC(=O)N1C[C@H](c2ccc(Br)cc2)[C@H]1C(=O)Nc1cccc2cccnc12 [MY-3B, (2S,3S)-1-acryloyl-3-(4-bromophenyl)-N-(quinolin-8-yl)azetidine-2-carboxamide]	79.5	−60.5	71.5	98.5	100	81	
CC#CC(=O)N1C[C@H](c2ccc(Br)cc2)[C@@H]1C(=O)Nc1cccc2cccnc12 [MY-45B, (2R,3S)-3-(4-bromophenyl)-1-(but-2-ynoyl)-N-(quinolin-8-yl)azetidine-2-carboxamide]							86.23
